Test results published in patent US20220079899A1, “COMPOSITIONS AND METHODS FOR TREATING OCULAR CONDITIONS” (The Regents of the University of California, priority 2019, published 2022).

Tested on: calcification in injured hearts of ABCC6-deficient mice
Test: Calcification after heart injury in a mouse model of PXE
Format: in vivo
Conditions: intraperitoneally 1 mcg/daily for 7 days, versus vehicle
Procedure: FIGS. 1A and 1B show calcification in injured hearts in a mouse model of PXE treated with vehicle (A) or ARL67156 (B).
ENPP1 inhibitors attenuate calcification in a mouse model of PXE. Mice genetically deficient in ABCC6 (the causative gene in PXE) were subjected to heart injury, and either (A) vehicle or (B) ARL67156 was administered (intraperitoneally 1 mcg/daily) for 7 days.

CCN(CC)c1ncnc2c1ncn2[C@@H]1O[C@H](COP(=O)(O)OP(=O)(O)C(Br)(Br)P(=O)(O)O)[C@@H](O)[C@H]1O [ARL67156]
calcification in the injured region: significant attenuation of calcification
